Experimental data reported in PubChem BioAssay AID248 (DTP/NCI, 2004).
Where “and” joins values, the source holds several entries; their conditions need not be identical. Equal entries are not always repeated. Inconclusive results and toxic doses are left out. Rule as the data show it: active = T/C of 150% or more; inactive = T/C below 125%.

Tested on: L1210 leukemia ip in BDF1 mice, survival T/C
Test: NCI In Vivo Anticancer Drug Screen. Data for tumor model L1210 Leukemia (intraperitoneal) in B6D2F1 (BDF1) mice
Settings: endpoint: mean survival time, higher = longer survival
Summary of the method: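 Each compound was tested against a transplantable tumor grown in mice. The endpoint was survival, with treated animals benchmarked against vehicle controls as a simple ratio.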

[1] = dose: 100.0 mg/kg/injection, schedule: Q01DX001 (ip), vehicle: saline
[2] = dose: 100.0 mg/kg/injection, schedule: Q04DX003 (ip), vehicle: Klucel (hydroxypropylcellulose) (HPC)
[3] = dose: 100.0 mg/kg/injection, schedule: Q04DX003 (ip), vehicle: saline with Tween-80
[4] = dose: 200.0 mg/kg/injection, schedule: Q01DX001 (ip), vehicle: saline
[5] = dose: 200.0 mg/kg/injection, schedule: Q04DX003 (ip), vehicle: Klucel (hydroxypropylcellulose) (HPC)
[6] = dose: 200.0 mg/kg/injection, schedule: Q04DX003 (ip), vehicle: saline with Tween-80
[7] = dose: 400.0 mg/kg/injection, schedule: Q01DX001 (ip), vehicle: saline
[8] = dose: 400.0 mg/kg/injection, schedule: Q04DX003 (ip), vehicle: Klucel (hydroxypropylcellulose) (HPC)
[9] = dose: 400.0 mg/kg/injection, schedule: Q04DX003 (ip), vehicle: saline with Tween-80
[10] = dose: 100.0 mg/kg/injection, schedule: Q04DX003 (ip), vehicle: saline
[11] = dose: 200.0 mg/kg/injection, schedule: Q04DX003 (ip), vehicle: saline
[12] = dose: 100.0 mg/kg/injection, schedule: Q01DX001 (ip), vehicle: Klucel (hydroxypropylcellulose) (HPC)
[13] = dose: 200.0 mg/kg/injection, schedule: Q01DX001 (ip), vehicle: Klucel (hydroxypropylcellulose) (HPC)
[14] = dose: 400.0 mg/kg/injection, schedule: Q01DX001 (ip), vehicle: Klucel (hydroxypropylcellulose) (HPC)
[15] = dose: 100.0 mg/kg/injection, schedule: Q04DX002 (ip), vehicle: Klucel (hydroxypropylcellulose) (HPC)
[16] = dose: 200.0 mg/kg/injection, schedule: Q04DX002 (ip), vehicle: Klucel (hydroxypropylcellulose) (HPC)
[17] = dose: 100.0 mg/kg/injection, schedule: Q01DX009 (ip), vehicle: Klucel (hydroxypropylcellulose) (HPC)

Measured: T/C

O=C(O)c1cccnc1Cl
inactive: dose: 50.0 mg/kg/injection, schedule: Q01DX001 (ip), vehicle: saline 96 % of control | [1] 93 % of control | [2] 96 % of control | [3] 105 % of control | [4] 100 % of control | [5] 97 % of control | [6] 105 % of control | [7] 106 % of control | [8] 91 % of control | [9] 106 % of control

C#CCO
inactive: dose: 12.0 mg/kg/injection, schedule: Q01DX009 (ip), vehicle: saline 107 % of control | dose: 25.0 mg/kg/injection, schedule: Q01DX009 (ip), vehicle: saline 110 % of control | dose: 50.0 mg/kg/injection, schedule: Q01DX009 (ip), vehicle: saline 94 % of control

COc1c(Cl)cc2c(c1OC)N(C)C1N3C(=O)C4(C)SSC3(C(=O)N4C)C(O)C21O (configuration not stated)
inactive: dose: 0.12 mg/kg/injection, schedule: Q01DX009 (ip), vehicle: Klucel (hydroxypropylcellulose) (HPC) 106 % of control | dose: 0.25 mg/kg/injection, schedule: Q01DX009 (ip), vehicle: Klucel (hydroxypropylcellulose) (HPC) 101 % of control | dose: 0.5 mg/kg/injection, schedule: Q01DX009 (ip), vehicle: Klucel (hydroxypropylcellulose) (HPC) 110 % of control | dose: 1.0 mg/kg/injection, schedule: Q01DX009 (ip), vehicle: Klucel (hydroxypropylcellulose) (HPC) 108 % of control

O=S(=O)(NO)c1ccc(Cl)cc1
inactive: dose: 50.0 mg/kg/injection, schedule: Q01DX009 (ip), vehicle: saline sonified 98 % of control | dose: 100.0 mg/kg/injection, schedule: Q01DX009 (ip), vehicle: saline sonified 91 % of control | [10] 98 % of control | dose: 200.0 mg/kg/injection, schedule: Q01DX009 (ip), vehicle: saline sonified 95 % of control | [11] 94 % of control

Cc1ccc(S(=O)(=O)OCC2C3CCC4C3C(C)(C)CCCC24C)cc1 (configuration not stated)
inactive: [12] 107 % of control | [13] 95 % of control | [14] 90 % of control

CC1C(C)(C)P(=O)(SCc2ccccc2)C1(C)C (configuration not stated)
inactive: [10] 94 % of control | [11] 103 % of control | dose: 400.0 mg/kg/injection, schedule: Q04DX003 (ip), vehicle: saline 100 % of control

S=c1nc[nH]c2c1ncn2-n1cccc1
inactive: dose: 100.0 mg/kg/injection, schedule: Q01DX001 (ip), vehicle: saline with Tween-80 97 % of control | [3] 103 % of control | dose: 200.0 mg/kg/injection, schedule: Q01DX001 (ip), vehicle: saline with Tween-80 87 % of control | [6] 98 % of control | dose: 400.0 mg/kg/injection, schedule: Q01DX001 (ip), vehicle: saline with Tween-80 92 % of control | [9] 98 % of control

Cc1no[n+]([O-])c1C(=O)O
inactive: [15] 95 % of control | [16] 93 % of control

C/C(=N/NC(N)=S)c1ccc(Cl)cc1
inactive: dose: 5.0 mg/kg/injection, schedule: Q01DX001 (ip), vehicle: other 105 % of control | dose: 10.0 mg/kg/injection, schedule: Q01DX001 (ip), vehicle: other 111 % of control

O=C(N/N=C/c1ccccc1O)N/N=C/c1ccccc1O
inactive: dose: 50.0 mg/kg/injection, schedule: Q04DX003 (ip), vehicle: Klucel (hydroxypropylcellulose) (HPC) 96 % of control | [2] 90 % of control | [5] 88 % of control

CCN1C(C)C1C(C)C (configuration not stated)
inactive: dose: 25.0 mg/kg/injection, schedule: Q01DX009 (ip), vehicle: Klucel (hydroxypropylcellulose) (HPC) 105 % of control | dose: 50.0 mg/kg/injection, schedule: Q01DX009 (ip), vehicle: Klucel (hydroxypropylcellulose) (HPC) 107 % of control | [17] 109 % of control | [2] 117 % of control

CCCCCCCCCCCCCCCCC/C=N\N=C(N)N
inactive: dose: 15.0 mg/kg/injection, schedule: Q01DX Z (ip), vehicle: carboxymethylcellulose (CMC) 101 % of control | dose: 30.0 mg/kg/injection, schedule: Q01DX Z (ip), vehicle: carboxymethylcellulose (CMC) 96 % of control | dose: 60.0 mg/kg/injection, schedule: Q01DX Z (ip), vehicle: carboxymethylcellulose (CMC) 90 % of control | dose: 60.0 mg/kg/injection, schedule: Q01DX Z (oral), vehicle: carboxymethylcellulose (CMC) 106 % of control | dose: 120.0 mg/kg/injection, schedule: Q01DX Z (ip), vehicle: carboxymethylcellulose (CMC) 104 % of control | dose: 120.0 mg/kg/injection, schedule: Q01DX Z (oral), vehicle: carboxymethylcellulose (CMC) 110 % of control | dose: 240.0 mg/kg/injection, schedule: Q01DX Z (oral), vehicle: carboxymethylcellulose (CMC) 118 % of control | dose: 480.0 mg/kg/injection, schedule: Q01DX Z (oral), vehicle: carboxymethylcellulose (CMC) 118 % of control

O=C(COc1ccc(Cl)cc1)Nc1ccccc1C(F)(F)F
inactive: [17] 102 % of control and 89 % of control | [2] 103 % of control | dose: 200.0 mg/kg/injection, schedule: Q01DX009 (ip), vehicle: Klucel (hydroxypropylcellulose) (HPC) 100 % of control | [5] 106 % of control | dose: 400.0 mg/kg/injection, schedule: Q01DX009 (ip), vehicle: Klucel (hydroxypropylcellulose) (HPC) 98 % of control | [8] 93 % of control

CCCCCCCCCCCCCCCCCC(=O)CCCCCCCCCCCCCCCCC
inactive: [12] 88 % of control | [13] 96 % of control | [14] 91 % of control

CCOC(=O)NC(C)NC(=O)OCC
inactive: [1] 107 % of control | [4] 101 % of control | [7] 97 % of control

OCC(CO)(CCl)CCl
inactive: dose: 100.0 mg/kg/injection, schedule: Q01DX009 (ip), vehicle: saline with Tween-80 103 % of control | dose: 200.0 mg/kg/injection, schedule: Q01DX009 (ip), vehicle: saline with Tween-80 103 % of control | dose: 400.0 mg/kg/injection, schedule: Q01DX009 (ip), vehicle: saline with Tween-80 96 % of control

O=Cc1cc(=O)[nH]c(NC(=O)C(Cl)Cl)n1
inactive: [1] 101 % of control | [4] 104 % of control | [7] 89 % of control

O=[N+]([O-])c1ccnc(NC2CCCCC2)c1
inactive: [1] 97 % of control | [4] 96 % of control | [7] 96 % of control

CSc1ccc(OC(=O)Nc2cccc3ccccc23)cc1C
inactive: [15] 101 % of control | [16] 101 % of control | dose: 400.0 mg/kg/injection, schedule: Q04DX002 (ip), vehicle: Klucel (hydroxypropylcellulose) (HPC) 104 % of control
